Consider one compound from publication PMC7313430, “Heme-Dependent ER Stress Apoptosis: A Mechanism for the Selective Toxicity of the Dihydroartemisinin, NSC735847, in Colorectal Cancer Cells” (Frontiers in Oncology, 2020).

In data set [1] the test system is HT29 cells. Briefly: MTS cell viability assay, colon cancer cells HT29. In kind it is cell-based, human. The procedure:
The human colon cancer cell lines HT29 and HCT116 were cultured in McCoy's 5A medium (Sigma Aldrich, St. Louis, MO) containing 10% heat-inactivated fetal bovine serum (FBS), penicillin (100 units/ml), and streptomycin (100 μg/ml). The non-tumorigenic colon cell line, FHC, was cultured in DMEM: F12 (1:1) medium supplemented with 10% heat inactivated FBS, 25 mM HEPES (Thermo Fisher Scientific Inc., IL), 10 ng/ml cholera toxin (Sigma Aldrich, St. Louis, MO), 0.005 mg/ml insulin (Thermo Fisher Scientific Inc., IL), 0.005 mg/ml, transferrin (Sigma Aldrich, St. Louis, MO), 100 ng/ml hydrocortisone (Sigma Aldrich, St. Louis, MO), 20 ng/mL human recombinant epidermal growth factor (Thermo Fisher Scientific Inc., IL), 100 units/ml penicillin, and 100 μg/ml streptomycin.
Cells were cultured in 96-well-plates for 48 h before treatment. Serum-free media containing different agents was added to the cells at the concentration and time period described in the figure legend. MTS reagent (Promega, Madison, WI) was then added to each well and the absorbance was measured at 495 nm as directed by the manufacturer. In the presence of MTS reagent, the absorbance reading is proportional to the number of viable cells. The half-maximal inhibitory concentration (IC50) of the tested compounds is the concentration that reduces the viability of cells by 50%. IC50 was calculated after 24 h of treatment ([30], [31]) as described previously ([32]–[34]) from dose-response curves (log drug concentration vs. percentage viability from untreated cells) generated by non-linear regression analysis with GraphPad Prism 5 software (GraphPad Software, San Diego, California).
Background: Formazan colour is commonly taken as a measure of viable cells.

For data set [2], the system named is caspase 3/7 activity in HCT-116 cells. Description: Caspase-Glo 3/7 activity assay in HCT116. The settings on record: 16 h, 1.25-10 μM. Format: cell-based, human. As to the method: (§1) The cells were plated in white-walled 96-well-plates and then they were cultured at 37°C for 48 h. Serum-free culture medium containing the appropriate concentration of different agents was added to the cells for the indicated period of time. Caspase-Glo 3/7 reagent (Promega, Madison, WI) was added to each well and luminescence was detected as directed by the manufacturer. The Caspase-Glo 3/7 kit measures the activity of the executioner caspases 3 and 7 using the luminogenic substrate (Z-DEVD-aminoluciferin) as substrate.

For data set [3], the system named is caspase 3/7 activity in FHC cells. Briefly: Caspase-Glo 3/7 activity assay in FHC. Format: cell-based, human. Particulars: 16 h, 1.25-10 μM. The procedure: as §1
The test system of data set [4] is HT29 cells. Description: TUNEL assay in HT29. Format: cell-based, human. The settings on record: 5 or 10 μM, 16 h. The procedure: (§2) HT29, HCT116, and FHC cells were cultured in chamber slides and treated with 5 μM NSC735847, 10 μM NSC735847, or vehicle (0.1% DMSO). The cells were then washed with PBS and fixed in 4% paraformaldehyde before detection of double stranded DNA breaks that are characteristic of apoptosis. Terminal deoxynucleotidyl transferase dUTP nick end labeling (TUNEL) assays were performed as described by the manufacturer (in situ Cell Death Detection Kit; Roche; Indianapolis, IN). Briefly, fixed cells were incubated in permeabilization solution (0.1% Triton X-100 in 0.1% sodium citrate) for 2 min on ice. The slides were rinsed twice with PBS, 50 μL TUNEL reaction mixture was added, and then the samples were incubated for 1 h at 37°C in the dark. The slides were overlayed with antifade mounting medium containing DAPI and then visualized using a Zeiss LSM 700 confocal microscope system (Carl Zeiss Microscopy, LLC, White Plains, NY).

The next data set relates to HCT116 cells. Briefly: TUNEL assay in HCT116. In kind it is cell-based, human. Particulars: 5 or 10 μM, 16 h. As to the method:
as §2

Data set [5] has as its system PERK, eIF2a, CHOP10, PARP, caspase 3 in FHC cells. Briefly: Western blot of ER stress and apoptosis proteins in FHC. In kind it is cell-based, human. The settings on record: 10 μM, 1-16 h. As to the method:
Western blot analysis was conducted as described previously ([35]). Briefly, the cells were cultured in 100 mm dishes for 48 h before treatment. The cells were then treated as described in the figure legends. For vehicle-treated samples, DMSO was added to serum-free culture medium at a maximum concentration of 0.1% (v/v). After experimentation, the cells were washed twice with phosphate buffer saline (PBS) and then 100 μl of Triton lysis buffer [25 mM HEPES, 100 mM NaCl, 1 mM EDTA, 10% (v/v) glycerol, 1% (v/v) Triton X-100], containing protease and […] inhibitors, was added to the cells. Protein concentrations were determined by using BCA reagents (Thermo Fisher Scientific Inc., IL). Equal concentrations of each sample were loaded onto SDS–PAGE gels and protein bands transferred to nitrocellulose membranes using semi-dry transfer cells (TRANS-BLOTSD; Bio-Rad Laboratories, Hercules, CA). The membranes were incubated for 2 h at room temperature in Odyssey blocking buffer (LI-COR Biosciences, Lincoln, NE). Membranes were then incubated overnight at 4C with primary antibody followed by 1 h of incubation at room temperature with secondary antibody. […] Protein bands were visualized using Odyssey® CLx digital fluorescence imaging system (LI-COR, Lincoln, Nebraska). Band intensities were quantified by using ImageJ software ([36]).

For data set [6], the system named is reactive oxygen species in HT29 cells. Briefly: Oxidative stress measurement with CM-H2DCFDA (DCF). In kind it is cell-based, human. The settings on record: HT29, 10 μM, 8 h. As to the method:
Oxidative stress was measured in cultured cells by using the probe, chloromethyl-2′,7′ dichlorodihydrofluorescein diacetate (CM-H2DCFDA or DCF) purchased from Life Technologies (Grand Island, NY). […] The cells were loaded with 5 μM DCF in phenol red-free, serum-free medium for 30 min and then the cells were treated with the appropriate drug for the indicated period of time. The cells were then trypsinized and resuspended in serum-containing, phenol red-free medium. The fluorescence of DCF was measured using an Accuri C6 flow cytometer (BD Accuri Cytometers, Ann Arbor, MI) at an excitation wavelength of 488 and emission of 533 ± 30 nm.

The test system of data set [7] is subcutaneous or orthotopic non-small cell lung cancer lesions. Particulars: athymic nude mice with subcutaneous or orthotopic non-small cell lung cancer lesions; cited from earlier work.

For the compound `CC1CCC2C(C)C(OCC(COC3OC4OC5(C)CCC6C(C)CCC(C3C)C46OO5)=NO)OC3OC4(C)CCC1C32OO4` (stereo not drawn) [compound (3)], the half-inhibitory concentration (IC50) (as a rule, the midpoint of a concentration-inhibition curve) with HT29 cells [1] (Homo sapiens, HT-29, MTS viability, 24 h treatment) is 11 µM. Moreover, the “cell death / survival of HT29 cells” value in the data set with HT29 cells [1] (MTS, 24 h, single agents or combinations) is given as “induced death in a concentration-dependent manner”. The “caspase 3/7 activity in HCT-116” value in data set [2] was “significantly increased”. In data set [3], the “caspase 3/7 activity in FHC” value is “not in FHC cells”. In addition, the “TUNEL positive cells in HT29” value with HT29 cells [4] is “increased the quantity of TUNEL positive cells”. Besides, the “TUNEL positive cells in HCT-116” value in the data set with HCT116 cells was “increased the quantity of TUNEL positive cells”. Also, the “activation of PERK, eIF2a, CHOP10, PARP, caspase 3 in FHC” value in data set [5] was “did not increase the activation”. In data set [6], the “intracellular oxidative stress (DCF fluorescence)” value is recorded as “increased the intracellular oxidative stress levels”. Besides, the “body weight of tumor-bearing mice” value in data set [7] is “did not cause significant changes in the body weight”.
